Laboratory results reported in patent publication US12209102B2, “Heterocyclic compounds and uses thereof” (Kumquat Biosciences Inc., priority 2022, dated 2025).

What was measured:
Type in all cases: biochemical
K-Ras G12V = target: T1, K-Ras G12V (Homo sapiens, UniProt P01116, G12V); experiment: HTRF resonance energy transfer assay, K-Ras G12V / SOS1 interaction; settings: HTRF assay of Example 5; read-out: IC50 against K-Ras G12V
T1 construct: made in house; host or cells: E. coli BL21 (DE3)
From the text: (§1) This assay can be also used to assess a selective inhibition or reduction of signaling output of a mutant Ras protein relative to a wildtype, or relative to a different mutant Ras protein. For example, the equilibrium interaction of wildtype Kras or K-Ras mutant (e.g., wildtype or a mutant thereof) with SOS1 (e.g., hSOS1) can be assessed as a proxy or an indication for a subject compound's ability to bind and inhibit Ras protein. HTRF assay detects from (i) a fluorescence resonance energy transfer (FRET) donor (e.g., antiGST-Europium) that is bound to GST-tagged K-Ras mutant to (ii) a FRET acceptor (e.g., anti-6His-XL665) bound to a His-tagged hSOS1.
(§2) The assay buffer can contain˜5 mM HEPES pH 7.4, ˜150 mM NaCl, ˜ 1 mM DTT, 0.05% BSA and 0.0025%(v/v) Igepal. A Ras working solution is prepared in an assay buffer containing typically a suitable amount of the protein construct (e.g., GST-tagged K-Ras mutant) and the FRET donor (e.g., antiGST-Eu(K) from Cisbio, France). A SOS1 working solution is prepared in an assay buffer containing suitable amount of the protein construct (e.g., His-hSOS1) and the FRET acceptor (e.g., anti-6His-XL665 from Cisbio, France). A suitable amount of the protein construct will depend on the range of activity or range of IC50 values being detected or under investigation. For detecting IC50 within a range of 500 nM, the protein constructs of the same range of molarity can be utilized.
(§3) A fixed volume of DMSO with or without test compound is transferred into a 384-well plate. Ras working solution is added to all wells of the test plate. SOS1 working solution is added to all wells except for those that are subsequently filled the inhibitor control solution. Upon incubation for about 10 minutes or longer, the fluorescence is measured with a M1000Pro plate reader (Tecan) using HTRF detection (excitation 337 nm, emission 1: 620 nm, emission 2: 665 nm). Compounds are tested in duplicates at different concentrations (for example, 10 μM, 2.5 μM, 0.63 μM, 0.16 μM, 0.04 μM, 0.01 μM test compound). The ratiometric data (i.e., emission 2 divided by emission 1) is used to calculate IC50 values against Ras using GraphPad Prism (GraphPad software). Following this general procedure, samples were tested with or without a subject compound disclosed herein including compounds exemplified in Table 1 to assess their abilities to inhibit a K-Ras mutant relative to another mutant or WT. Signaling output measured in terms of IC50 values can be obtained, a ratio of IC50 against one mutant relative to another mutant can be calculated. For instance, a selective reduction of K-Ras G12D signaling output can be evidenced by a ratio greater than one. In particular, a selective reduction of K-Ras G12D signaling relative to K-Ras WT signaling is evidenced as the ratio of IC50 (against K-Ras WT) to IC50 (against K-Ras G12D) is greater than 1.

K-Ras G12S = target: T2, K-Ras G12S (Homo sapiens, UniProt P01116, G12S); experiment: HTRF resonance energy transfer assay, K-Ras G12S / SOS1 interaction; settings: HTRF assay of Example 5; read-out: IC50 against K-Ras G12S
T2 construct: made in house; host or cells: E. coli BL21 (DE3)
T2 sequence (P01116 1-188 isoform P01116-2 G12S): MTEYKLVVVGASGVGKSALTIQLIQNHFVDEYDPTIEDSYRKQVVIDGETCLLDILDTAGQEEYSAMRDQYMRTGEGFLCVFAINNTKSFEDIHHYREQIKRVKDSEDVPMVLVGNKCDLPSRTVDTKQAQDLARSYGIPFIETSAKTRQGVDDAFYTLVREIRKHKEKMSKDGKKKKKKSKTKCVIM
From the text: as §1, §2, §3

K-Ras WT = target: T3, K-Ras WT (Homo sapiens, UniProt P01116); experiment: HTRF resonance energy transfer assay, K-Ras WT / SOS1 interaction; settings: HTRF assay of Example 5; read-out: IC50 against K-Ras WT
T3 construct: made in house; host or cells: E. coli BL21 (DE3)
T3 sequence (P01116 1-188 isoform P01116-2): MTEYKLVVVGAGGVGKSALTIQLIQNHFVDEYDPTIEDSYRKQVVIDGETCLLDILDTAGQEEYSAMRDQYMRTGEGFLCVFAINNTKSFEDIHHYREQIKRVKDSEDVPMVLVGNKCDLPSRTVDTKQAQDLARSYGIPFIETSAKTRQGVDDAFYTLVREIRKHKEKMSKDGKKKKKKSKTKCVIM
From the text: as §1, §2, §3

T1 sequence (P01116 1-188 isoform P01116-2 G12V): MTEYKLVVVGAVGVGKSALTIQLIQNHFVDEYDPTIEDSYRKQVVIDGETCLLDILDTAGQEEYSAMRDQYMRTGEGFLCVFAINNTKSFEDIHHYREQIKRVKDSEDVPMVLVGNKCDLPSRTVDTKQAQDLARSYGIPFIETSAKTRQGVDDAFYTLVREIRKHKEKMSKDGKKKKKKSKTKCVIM

| SMILES | IC50 (K-Ras G12V) | IC50 (K-Ras G12S) | IC50 (K-Ras WT) |
| --- | --- | --- | --- |
| N#Cc1c(N)sc2c(F)ccc(-c3c(Cl)c4c5c(nc(OC[C@@]67CCCN6C[C@H](F)C7)nc5c3F)N(CC(F)F)[C@H](CNC=O)CO4)c12 [Compound 627, N-(((5R)-9-(2-amino-3-cyano-7-fluorobenzo[b]thiophen-4-yl)-8-chloro-4-(2,2-difluoroethyl)-10-fluoro-2-(((2R,7aS)-2-fluorotetrahydro-1H-pyrrolizin-7a(5H)-yl)methoxy)-5,6-dihydro-4H-[1,4]oxazepino[5,6,7-de]quinazolin-5-yl)methyl)formamide] | < 100 nM | < 100 nM | – |
| C=C(F)C1COc2c(Cl)c(-c3ccc(F)c4sc(N)c(C#N)c34)c(F)c3nc(OC[C@@]45CCCN4C[C@H](F)C5)nc(c23)N1CC(F)F (stereo partly drawn) [Compound 651, 2-amino-4-(8-chloro-4-(2,2-difluoroethyl)-10-fluoro-2-(((2R,7aS)-2-fluorotetrahydro-1H-pyrrolizin-7a(5H)-yl)methoxy)-5-(1-fluorovinyl)-5,6-dihydro-4H-[1,4]oxazepino[5,6,7-de]quinazolin-9-yl)-7-fluorobenzo[b]thiophene-3-carbonitrile] | < 100 nM | – | – |
| N#Cc1c(N)sc2c(F)ccc(-c3c(Cl)c4c5c(nc(OC[C@@]67CCCN6C[C@H](F)C7)nc5c3F)N(CC(F)F)C(C3CCN3C(=O)C3CN3)CO4)c12 (stereo partly drawn) [Compound 666, 2-amino-4-(5-(1-(aziridine-2-carbonyl)azetidin-2-yl)-8-chloro-4-(2,2-difluoroethyl)-10-fluoro-2-(((2R,7aS)-2-fluorotetrahydro-1H-pyrrolizin-7a(5H)-yl)methoxy)-5,6-dihydro-4H-[1,4]oxazepino[5,6,7-de]quinazolin-9-yl)-7-fluorobenzo[b]thiophene-3-carbonitrile] | – | < 100 nM | < 100 nM |
| N#Cc1c(N)sc2c(F)ccc(-c3c(Cl)c4c5c(nc(OC[C@@]67CCCN6C[C@H](F)C7)nc5c3F)N(C3C5CC3N(C(=O)C(F)F)C5)CCO4)c12 (stereo partly drawn) [Compound 886, 2-amino-4-(8-chloro-4-(2-(2,2-difluoroacetyl)-2-azabicyclo[2.1.1]hexan-5-yl)-10-fluoro-2-(((2R,7aS)-2-fluorotetrahydro-1H-pyrrolizin-7a(5H)-yl)methoxy)-5,6-dihydro-4H-[1,4]oxazepino[5,6,7-de]quinazolin-9-yl)-7-fluorobenzo[b]thiophene-3-carbonitrile] | – | < 100 nM | < 100 nM |
| N#Cc1c(N)sc2c(F)ccc(-c3c(Cl)c4c5c(nc(OC[C@@]67CCCN6C[C@H](F)C7)nc5c3F)N(CC(F)F)C(C3CCCN3C(=O)[C@H]3CN3)CO4)c12 (stereo partly drawn) [Compound 1007, 2-amino-4-(5-(1-((R)-aziridine-2-carbonyl)pyrrolidin-2-yl)-8-chloro-4-(2,2-difluoroethyl)-10-fluoro-2-(((2R,7aS)-2-fluorotetrahydro-1H-pyrrolizin-7a(5H)-yl)methoxy)-5,6-dihydro-4H-[1,4]oxazepino[5,6,7-de]quinazolin-9-yl)-7-fluorobenzo[b]thiophene-3-carbonitrile] | – | – | < 100 nM |
| C[C@@H](O)[C@@H]1COc2c(Cl)c(-c3ccc(F)c4sc(N)c(C#N)c34)c(F)c3nc(OC[C@@]45CCCN4C[C@H](F)C5)nc(c23)N1CC(F)F [Compound 1111, 2-amino-4-((5S)-8-chloro-4-(2,2-difluoroethyl)-10-fluoro-2-(((2R,7aS)-2-fluorotetrahydro-1H-pyrrolizin-7a(5H)-yl)methoxy)-5-((R)-1-hydroxyethyl)-5,6-dihydro-4H-[1,4]oxazepino[5,6,7-de]quinazolin-9-yl)-7-fluorobenzo[b]thiophene-3-carbonitrile] | < 100 nM | – | – |
| C[C@@H]1CC(CO)Oc2c(Cl)c(-c3ccc(F)c4sc(N)c(C#N)c34)c(F)c3nc(OC[C@@]45CCCN4C[C@H](F)C5)nc(c23)N1 (stereo partly drawn) [Compound 1210, 2-amino-4-((5R)-9-chloro-11-fluoro-2-(((2R,7aS)-2-fluorotetrahydro-1H-pyrrolizin-7a(5H)-yl)methoxy)-7-(hydroxymethyl)-5-methyl-4,5,6,7-tetrahydro-[1,5]oxazocino[4,3,2-de]quinazolin-10-yl)-7-fluorobenzo[b]thiophene-3-carbonitrile] | < 100 nM | – | – |
